Reference: ChEMBL document CHEMBL2331210, “New 2-benzylsulfanyl-nicotinic acid based 1,3,4-oxadiazoles: their synthesis and biological evaluation” (2013)
In brackets after ≈: the same amount, converted by molar mass.

Key:
Format in all cases: functional
Aspergillus niger = assay: Antimicrobial activity against Aspergillus niger MTCC 282 assessed as growth inhibition measured after overnight incubation by broth dilution method
Staphylococcus aureus = assay: Antimicrobial activity against Staphylococcus aureus MTCC 96 assessed as growth inhibition measured after overnight incubation by broth dilution method
[1] = test system: Mycobacterium tuberculosis; assay: Antitubercular activity against Mycobacterium tuberculosis H37Rv assessed as growth inhibition after 12 to 28 days by L.J. agar MIC method; details: for MIC: Mycobacterium tuberculosis, H37Rv
Pseudomonas aeruginosa = assay: Antimicrobial activity against Pseudomonas aeruginosa MTCC 2488 assessed as growth inhibition measured after overnight incubation by broth dilution method
Candida albicans = assay: Antimicrobial activity against Candida albicans MTCC 227 assessed as growth inhibition measured after overnight incubation by broth dilution method
Escherichia coli = assay: Antimicrobial activity against Escherichia coli MTCC 443 assessed as growth inhibition measured after overnight incubation by broth dilution method
Aspergillus clavatus = assay: Antimicrobial activity against Aspergillus clavatus MTCC 1323 assessed as growth inhibition measured after overnight incubation by broth dilution method
Streptococcus pyogenes = assay: Antimicrobial activity against Streptococcus pyogenes MTCC 442 assessed as growth inhibition measured after overnight incubation by broth dilution method

| SMILES | MIC (Aspergillus niger) [µg/mL] | MIC (Staphylococcus aureus) [µg/mL] | growth inhibition (GI) [1] [%] | MIC [1] [µg/mL] | MIC (Pseudomonas aeruginosa) [µg/mL] | MIC (Candida albicans) [µg/mL] | MIC (Escherichia coli) [µg/mL] | MIC (Aspergillus clavatus) [µg/mL] | MIC (Streptococcus pyogenes) [µg/mL] |
| --- | --- | --- | --- | --- | --- | --- | --- | --- | --- |
| Cc1ccc2sc(-c3ccc(NC(=O)CCl)cc3)nc2c1 | 1000 (≈ 3160 µM) | 250 (≈ 789 µM) | 99 | 200 (≈ 631 µM) | 100 (≈ 316 µM) | 500 (≈ 1580 µM) | 125 (≈ 395 µM) | 500 (≈ 1580 µM) | 100 (≈ 316 µM) |
| CCOC(=O)CSc1nnc(-c2cccnc2SCc2ccccc2)o1 | 1000 (≈ 2580 µM) | 500 (≈ 1290 µM) | 98 | 100 (≈ 258 µM) | 200 (≈ 516 µM) | 1000 (≈ 2580 µM) | 500 (≈ 1290 µM) | 1000 (≈ 2580 µM) | 125 (≈ 323 µM) |
| S=c1[nH]nc(-c2cccnc2SCc2ccccc2)o1 | 1000 (≈ 3320 µM) | 100 (≈ 332 µM) | 99 | 100 (≈ 332 µM) | 125 (≈ 415 µM) | 1000 (≈ 3320 µM) | 100 (≈ 332 µM) | 200 (≈ 664 µM) | 100 (≈ 332 µM) |
| N#CSc1ccc2nc(NC(=O)CSc3nnc(-c4cccnc4SCc4ccccc4)o3)sc2c1 | 100 (≈ 182 µM) | 250 (≈ 456 µM) | 99 | 50 (≈ 91.1 µM) | 62.5 (≈ 114 µM) | 500 (≈ 911 µM) | 250 (≈ 456 µM) | 250 (≈ 456 µM) | 12.5 (≈ 22.8 µM) |
| COc1cc(OC)nc(NC(=O)CCl)n1 | 1000 (≈ 4320 µM) | 500 (≈ 2160 µM) | 98 | 250 (≈ 1080 µM) | 125 (≈ 540 µM) | 500 (≈ 2160 µM) | 100 (≈ 432 µM) | > 1000 | 125 (≈ 540 µM) |
| c1ccc(CSc2ncccc2-c2nnc(SCC3CO3)o2)cc1 (configuration not stated) | 1000 (≈ 2800 µM) | 62.5 (≈ 175 µM) | 97 | 500 (≈ 1400 µM) | 125 (≈ 350 µM) | 500 (≈ 1400 µM) | 62.5 (≈ 175 µM) | 1000 (≈ 2800 µM) | 250 (≈ 699 µM) |
| O=C(CCl)Nc1nc(Cl)cc(Cl)n1 | > 1000 | 500 (≈ 2080 µM) | 88 | 500 (≈ 2080 µM) | 500 (≈ 2080 µM) | 250 (≈ 1040 µM) | 200 (≈ 832 µM) | > 1000 | 200 (≈ 832 µM) |
| O=C(CSc1nnc(-c2cccnc2SCc2ccccc2)o1)Nn1cnnc1 | 1000 (≈ 2350 µM) | 250 (≈ 588 µM) | 99 | 25 (≈ 58.8 µM) | 125 (≈ 294 µM) | 100 (≈ 235 µM) | 100 (≈ 235 µM) | 500 (≈ 1180 µM) | 125 (≈ 294 µM) |
